Where a name gives a salt, the structure may show the parent alone.
molecular target: human SPR (Homo sapiens (Human), UniProt P35270); assay: Evaluation Example 2: Measurement of human SPR inhibitory activity (seven concentrations, sepiapterin absorbance at 420 nm); type: biochemical; conditions: Evaluation Example 2, seven concentrations 0.14 nM to 100 nM, 240 minutes at room temperature, read-out: IC50
In short: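 His-tagged full-length human SPR (1-261) was expressed in E. coli and the tag removed. Enzyme at 150 ng/mL in 100 mM Tris-HCl pH 7.5/0.01% BSA was mixed with compound (0.14–100 nM, seven points), 120 μM sepiapterin and 160 μM NADPH, both as added-solution concentrations. After 240 min at room temperature, remaining sepiapterin was read at 420 nm to give percent inhibition.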

Sequence of human SPR (P35270 whole entry): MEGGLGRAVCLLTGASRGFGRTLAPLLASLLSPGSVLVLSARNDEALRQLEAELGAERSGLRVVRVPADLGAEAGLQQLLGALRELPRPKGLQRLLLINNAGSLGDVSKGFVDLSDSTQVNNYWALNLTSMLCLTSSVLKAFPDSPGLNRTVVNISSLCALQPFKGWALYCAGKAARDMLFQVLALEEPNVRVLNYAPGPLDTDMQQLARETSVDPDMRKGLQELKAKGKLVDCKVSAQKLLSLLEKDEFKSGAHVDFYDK

SMILES | IC50 [pM]
CC(C)(C)Cn1c(=O)c(C(=O)NC2CC2)c(O)n2nc(N)c(Cl)c12 [compound 447, 2-Amino-3-chloro-N-cyclopropyl-7-hydroxy-4-neopentyl-5-oxo-4,5-dihydropyrazolo[1,5-a]pyrimidine-6-carboxamide hydrochloride] | 2160
CC(C)(C)Cn1c(=O)c(C(=O)NC2CC2)c(O)n2nc(-c3cccnc3N)c(Br)c12 [compound 448, 2-(2-Aminopyridin-3-yl)-3-bromo-N-cyclopropyl-7-hydroxy-4-neopentyl-5-oxo-4,5-dihydropyrazolo[1,5-a]pyrimidine-6-carboxamide] | 8220
CC(C)Cn1c(=O)c(C(=O)NC2CC2)c(O)n2nc(-c3cccnc3N)c(/C=C/C(=O)N3CCOCC3)c12 [compound 449, (E)-2-(2-Aminopyridin-3-yl)-N-cyclopropyl-7-hydroxy-4-isobutyl-3-(3-morpholino-3-oxoprop-1-en-1-yl)-5-oxo-4,5-dihydropyrazolo[1,5-a]pyrimidine-6-carboxamide] | 840
CC(C)Cn1c(=O)c(C(=O)NC2CC2)c(O)n2nc(C(N)=O)c(/C=C/C(=O)N3CCOCC3)c12 [compound 450, (E)-N6-Cyclopropyl-7-hydroxy-4-isobutyl-3-(3-morpholino-3-oxoprop-1-en-1-yl)-5-oxo-4,5-dihydropyrazolo[1,5-a]pyrimidine-2,6-dicarboxamide] | 600
CC(C)Cn1c(=O)c(C(=O)NC2CC2)c(O)n2nc(C(N)=O)c(/C=C/C3CCOCC3)c12 [compound 451, (E)-N6-Cyclopropyl-7-hydroxy-4-isobutyl-5-oxo-3-(2-(tetrahydro-2H-pyran-4-yl)vinyl)-4,5-dihydropyrazolo[1,5-a]pyrimidine-2,6-dicarboxamide] | 690
CC(C)Cn1c(=O)c(C(=O)NC2CC2)c(O)n2ncc(/C=C/C(=O)N3CCCC3)c12 [compound 452, (E)-N-Cyclopropyl-7-hydroxy-4-isobutyl-5-oxo-3-(3-oxo-3-(pyrrolidin-1-yl)prop-1-en-1-yl)-4,5-dihydropyrazolo[1,5-a]pyrimidine-6-carboxamide] | 830
CC(C)Cn1c(=O)c(C(=O)NC2CC2)c(O)n2ncc(/C=C/C(=O)N3CCC(F)(F)C3)c12 [compound 453, (E)-N-Cyclopropyl-3-(3-(3,3-difluoropyrrolidin-1-yl)-3-oxoprop-1-en-1-yl)-7-hydroxy-4-isobutyl-5-oxo-4,5-dihydropyrazolo[1,5-a]pyrimidine-6-carboxamide] | 820
CC(C)Cn1c(=O)c(C(=O)NC2CC2)c(O)n2ncc(/C=C/C(=O)N3CC[C@H](F)C3)c12 [compound 454, (S,E)-N-Cyclopropyl-3-(3-(3-fluoropyrrolidin-1-yl)-3-oxoprop-1-en-1-yl)-7-hydroxy-4-isobutyl-5-oxo-4,5-dihydropyrazolo[1,5-a]pyrimidine-6-carboxamide] | 750
CC(C)Cn1c(=O)c(C(=O)NC2CC2)c(O)n2ncc(/C=C/C(=O)N3CCOC[C@@H]3C)c12 [compound 455, (S,E)-N-Cyclopropyl-7-hydroxy-4-isobutyl-3-(3-(3-methylmorpholino)-3-oxoprop-1-en-1-yl)-5-oxo-4,5-dihydropyrazolo[1,5-a]pyrimidine-6-carboxamide] | 720
CC(C)Cn1c(=O)c(C(=O)NC2CC2)c(O)n2ncc(/C=C/C(=O)N3CC4CCC(C3)O4)c12 [compound 456, (E)-3-(3-(8-Oxa-3-azabicyclo[3.2.1]octan-3-yl)-3-oxoprop-1-en-1-yl)-N-cyclopropyl-7-hydroxy-4-isobutyl-5-oxo-4,5-dihydropyrazolo[1,5-a]pyrimidine-6-carboxamide] | 580

same assay, conditions: sepiapterin absorbance, Table 41, read-out: concentration at 50% inhibition of human SPR (IC50)

SMILES | IC50 [pM]
CC(C)Cn1c(=O)c(C(=O)NC2CC2)c(O)n2ncc(/C=C/C(=O)N3CCCC34CCN(C(C)C)CC4)c12 [Synthesis Example 746, (E)-N-Cyclopropyl-7-hydroxy-4-isobutyl-3-(3-(8-isopropyl-1,8-diazaspiro[4.5]decan-1-yl)-3-oxoprop-1-en-1-yl)-5-oxo-4,5-dihydropyrazolo[1,5-a]pyrimidine-6-carboxamide] | 1540
Cc1nn2c(O)c(C(=O)NC3CC3)c(=O)n(CC(C)(C)F)c2c1/C=C/C(=O)N1CCOCC1 [Synthesis Example 747, (E)-N-Cyclopropyl-4-(2-fluoro-2-methylpropyl)-7-hydroxy-2-methyl-3-(3-morpholino-3-oxoprop-1-en-1-yl)-5-oxo-4,5-dihydropyrazolo[1,5-a]pyrimidine-6-carboxamide] | 740
CC(C)Cn1c(=O)c(C(=O)NC2CC2)c(O)n2ncc(/C=C/C(=O)N3CCC[C@@H]3c3cccnc3)c12 [Synthesis Example 748, (R,E)-N-Cyclopropyl-7-hydroxy-4-isobutyl-5-oxo-3-(3-oxo-3-(2-(pyridin-3-yl)pyrrolidin-1-yl)prop-1-en-1-yl)-4,5-dihydropyrazolo[1,5-a]pyrimidine-6-carboxamide] | 1010
Cc1nn2c(O)c(C(=O)NC3CC3)c(=O)n(CC(C)C)c2c1/C=C/C(=O)N1CCC[C@@H]1C#N [Synthesis Example 749, (R,E)-3-(3-(2-Cyanopyrrolidin-1-yl)-3-oxoprop-1-en-1-yl)-N-cyclopropyl-7-hydroxy-4-isobutyl-2-methyl-5-oxo-4,5-dihydropyrazolo[1,5-a]pyrimidine-6-carboxamide] | 930
COCCN(C)C(=O)/C=C/c1c(C)nn2c(O)c(C(=O)NC3CC3)c(=O)n(CC(C)C)c12 [Synthesis Example 750, (E)-N-Cyclopropyl-7-hydroxy-4-isobutyl-3-(3-((2-methoxyethyl)(methyl)amino)-3-oxoprop-1-en-1-yl)-2-methyl-5-oxo-4,5-dihydropyrazolo[1,5-a]pyrimidine-6-carboxamide] | 960
CCN1CCN(C(=O)/C=C/c2c(C)nn3c(O)c(C(=O)NC4CC4)c(=O)n(CC(C)C)c23)[C@H](C)C1 [Synthesis Example 751, (R,E)-N-Cyclopropyl-3-(3-(4-ethyl-2-methylpiperazin-1-yl)-3-oxoprop-1-en-1-yl)-7-hydroxy-4-isobutyl-2-methyl-5-oxo-4,5-dihydropyrazolo[1,5-a]pyrimidine-6-carboxamide] | 1340
Cc1nn2c(O)c(C(=O)NC3CC3)c(=O)n(CC(C)C)c2c1/C=C/C(=O)N1CCc2cncnc21 [Synthesis Example 752, (E)-N-Cyclopropyl-3-(3-(5,6-dihydro-7H-pyrrolo[2,3-d]pyrimidin-7-yl)-3-oxoprop-1-en-1-yl)-7-hydroxy-4-isobutyl-2-methyl-5-oxo-4,5-dihydropyrazolo[1,5-a]pyrimidine-6-carboxamide] | 880
Cc1nn2c(O)c(C(=O)NC3CC3)c(=O)n(CC(C)C)c2c1/C=C/C(=O)N1C[C@@H]2C[C@H]1CO2 [Synthesis Example 753, 3-((E)-3-((1S,4S)-2-Oxa-5-azabicyclo[2.2.1]heptan-5-yl)-3-oxoprop-1-en-1-yl)-N-cyclopropyl-7-hydroxy-4-isobutyl-2-methyl-5-oxo-4,5-dihydropyrazolo[1,5-a]pyrimidine-6-carboxamide] | 480
Cc1nn2c(O)c(C(=O)NC3CC3)c(=O)n(CC(C)C)c2c1/C=C/C(=O)N1C[C@H]2C[C@@H]1CO2 [Synthesis Example 754, 3-((E)-3-((1R,4R)-2-Oxa-5-azabicyclo[2.2.1]heptan-5-yl)-3-oxoprop-1-en-1-yl)-N-cyclopropyl-7-hydroxy-4-isobutyl-2-methyl-5-oxo-4,5-dihydropyrazolo[1,5-a]pyrimidine-6-carboxamide] | 830
